Activity calls are given as the source filed them. The rule behind the calls is not given here.
Experiments:
[1] = molecular target: Insulin receptor-related protein (Homo sapiens) (UniProt P14616); assay: Inhibition of INSRR (unknown origin) at 1 uM by Ambit Kinomescan binding assay relative to control; values are per cent of control
[2] = molecular target: Membrane-associated tyrosine- and threonine-specific cdc2-inhibitory kinase (Homo sapiens) (UniProt Q99640); assay: Inhibition of PKMYT1 (unknown origin) at 1 uM by Ambit Kinomescan binding assay relative to control
[3] = molecular target: Cyclin-dependent kinase 3 (Homo sapiens) (UniProt Q00526); assay: Inhibition of CDK3 (unknown origin) at 1 uM by Ambit Kinomescan binding assay relative to control; values are per cent of control
[4] = molecular target: Phosphatidylinositol 4,5-bisphosphate 3-kinase catalytic subunit beta isoform (Homo sapiens) (UniProt P42338); assay: Inhibition of PIK3CB (unknown origin) at 1 uM by Ambit Kinomescan binding assay relative to control; values are per cent of control
[5] = Inhibition of KHS1 Lys1 labeling site in human A-375 cells at 0.5 uM by KiNativ Profiling analysis relative to control; conditions: condition cancer
[6] = molecular target: Tyrosine-protein kinase CSK (Homo sapiens, UniProt P41240); assay: Inhibition of CSK ACT labeling site harbouring VSDFGLTKEASSTQDTGK in human A-375 cells at 0.5 uM by KiNativ Profiling analysis relative to control; type: cell-based
[7] = molecular target: T1, Eukaryotic translation initiation factor 2-alpha kinase 3 (Homo sapiens) (UniProt Q9NZJ5); assay: Inhibition of PEK K2 labeling site in human Huh-7 cells at 1 uM by KiNativ Profiling analysis relative to control; type: cell-based
T1 sequence (whole entry): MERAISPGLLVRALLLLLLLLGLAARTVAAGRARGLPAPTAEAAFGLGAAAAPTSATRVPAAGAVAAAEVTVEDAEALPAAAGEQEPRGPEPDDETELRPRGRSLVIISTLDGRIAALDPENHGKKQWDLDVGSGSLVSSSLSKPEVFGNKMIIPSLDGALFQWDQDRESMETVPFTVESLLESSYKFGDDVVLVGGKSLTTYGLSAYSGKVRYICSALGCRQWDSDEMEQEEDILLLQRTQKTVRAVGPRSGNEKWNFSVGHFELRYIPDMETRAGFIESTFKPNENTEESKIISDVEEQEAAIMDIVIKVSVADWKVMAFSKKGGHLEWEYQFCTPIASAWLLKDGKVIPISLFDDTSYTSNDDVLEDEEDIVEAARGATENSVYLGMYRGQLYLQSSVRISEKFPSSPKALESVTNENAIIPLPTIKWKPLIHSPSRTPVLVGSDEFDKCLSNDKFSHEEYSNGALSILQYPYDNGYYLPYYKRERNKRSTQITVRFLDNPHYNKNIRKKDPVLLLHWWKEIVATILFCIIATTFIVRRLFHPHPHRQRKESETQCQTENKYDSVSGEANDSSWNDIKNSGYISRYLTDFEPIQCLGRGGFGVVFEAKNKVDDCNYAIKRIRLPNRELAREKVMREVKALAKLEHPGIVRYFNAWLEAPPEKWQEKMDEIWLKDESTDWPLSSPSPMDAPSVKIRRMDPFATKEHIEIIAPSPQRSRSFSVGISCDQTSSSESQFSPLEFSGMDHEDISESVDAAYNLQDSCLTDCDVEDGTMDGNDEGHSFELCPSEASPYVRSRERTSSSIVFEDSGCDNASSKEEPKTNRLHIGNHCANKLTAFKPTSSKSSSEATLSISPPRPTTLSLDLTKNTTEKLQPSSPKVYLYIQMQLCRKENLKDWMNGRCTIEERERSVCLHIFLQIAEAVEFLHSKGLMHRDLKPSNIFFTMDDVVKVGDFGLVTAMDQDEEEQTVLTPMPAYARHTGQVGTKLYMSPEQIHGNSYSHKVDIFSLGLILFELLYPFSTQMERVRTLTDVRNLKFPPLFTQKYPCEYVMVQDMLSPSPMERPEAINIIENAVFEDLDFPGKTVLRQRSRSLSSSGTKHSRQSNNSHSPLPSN

[8] = molecular target: Serine/threonine-protein kinase 32C (Homo sapiens) (UniProt Q86UX6); assay: Inhibition of YANK3 (unknown origin) at 10 uM by Ambit Kinomescan binding assay
[9] = molecular target: Calcium/calmodulin-dependent protein kinase type 1 (Homo sapiens) (UniProt Q14012); assay: Inhibition of CaMK1a K1 labeling site in human Huh-7 cells at 10 uM by KiNativ Profiling analysis relative to control; type: cell-based
[10] = molecular target: Focal adhesion kinase 1 (Homo sapiens) (UniProt Q05397); assay: Inhibition of FAK Lys1 labeling site in human Huh-7 cell lysate at 1 uM by KiNativ Profiling analysis relative to control; type: subcellular
[11] = molecular target: Serine/threonine-protein kinase 32C (Homo sapiens) (UniProt Q86UX6); assay: Inhibition of YANK3 Lys2 labeling site in human Huh-7 cell lysate at 1 uM by KiNativ Profiling analysis relative to control; type: subcellular
[12] = molecular target: T2, Dual specificity mitogen-activated protein kinase kinase 3 (Homo sapiens) (UniProt P46734); assay: Inhibition of MAP2K3 ACT labeling site in human Huh-7 cell lysate at 1 uM by KiNativ Profiling analysis relative to control; type: subcellular
T2 sequence (whole entry): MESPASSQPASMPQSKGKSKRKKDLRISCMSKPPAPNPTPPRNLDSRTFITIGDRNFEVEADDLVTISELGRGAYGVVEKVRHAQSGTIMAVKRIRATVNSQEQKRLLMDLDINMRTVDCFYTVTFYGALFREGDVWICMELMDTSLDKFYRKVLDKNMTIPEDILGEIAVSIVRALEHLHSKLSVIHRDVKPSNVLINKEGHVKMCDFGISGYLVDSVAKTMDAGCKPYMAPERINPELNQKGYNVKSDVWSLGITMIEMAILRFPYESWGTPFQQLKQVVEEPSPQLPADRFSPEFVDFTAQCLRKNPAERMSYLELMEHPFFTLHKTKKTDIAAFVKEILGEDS

[13] = molecular target: 5'-AMP-activated protein kinase catalytic subunit alpha-2 (Homo sapiens) (UniProt P54646); assay: Inhibition of AMPKa2 Lys1 labeling site in human Huh-7 cells at 1 uM by KiNativ Profiling analysis relative to control; type: cell-based
[14] = molecular target: Calcium/calmodulin-dependent protein kinase type II subunit delta (Homo sapiens) (UniProt Q13557); assay: Inhibition of CaMK2d Lys1 labeling site harbouring IPTGQEYAAKIINTK in human Huh-7 cells at 1 uM by KiNativ Profiling analysis relative to control; type: cell-based
[15] = molecular target: DNA-PK/Ku70/Ku85 (Homo sapiens) (UniProt P78527+P12956+P13010); assay: Inhibition of DNAPK ATP labeling site harbouring KGGSWIQEINVAEK in human Huh-7 cells at 1 uM by KiNativ Profiling analysis relative to control; type: cell-based
[16] = molecular target: Serine/threonine-protein kinase WNK3 (Homo sapiens) (UniProt Q9BYP7); assay: Inhibition of Wnk3 Lys2 labeling site in human Huh-7 cell lysate at 1 uM by KiNativ Profiling analysis relative to control; type: subcellular

Chain of Serine/threonine-protein kinase 32C (Homo sapiens) (Q86UX6 whole entry): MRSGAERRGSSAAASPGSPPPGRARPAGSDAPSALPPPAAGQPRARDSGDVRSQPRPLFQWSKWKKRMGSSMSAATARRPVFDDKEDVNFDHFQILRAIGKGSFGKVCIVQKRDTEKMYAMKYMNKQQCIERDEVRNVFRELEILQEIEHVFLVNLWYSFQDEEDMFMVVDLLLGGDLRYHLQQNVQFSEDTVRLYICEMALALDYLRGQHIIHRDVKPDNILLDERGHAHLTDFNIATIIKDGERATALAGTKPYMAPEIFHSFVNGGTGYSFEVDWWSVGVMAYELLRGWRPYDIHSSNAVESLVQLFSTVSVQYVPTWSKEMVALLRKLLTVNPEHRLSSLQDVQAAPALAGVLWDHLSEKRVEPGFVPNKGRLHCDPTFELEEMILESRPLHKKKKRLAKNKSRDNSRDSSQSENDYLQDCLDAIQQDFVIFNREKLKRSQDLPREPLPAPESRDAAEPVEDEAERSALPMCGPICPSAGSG
Chain of 5'-AMP-activated protein kinase catalytic subunit alpha-2 (Homo sapiens) (P54646 whole entry, looked up): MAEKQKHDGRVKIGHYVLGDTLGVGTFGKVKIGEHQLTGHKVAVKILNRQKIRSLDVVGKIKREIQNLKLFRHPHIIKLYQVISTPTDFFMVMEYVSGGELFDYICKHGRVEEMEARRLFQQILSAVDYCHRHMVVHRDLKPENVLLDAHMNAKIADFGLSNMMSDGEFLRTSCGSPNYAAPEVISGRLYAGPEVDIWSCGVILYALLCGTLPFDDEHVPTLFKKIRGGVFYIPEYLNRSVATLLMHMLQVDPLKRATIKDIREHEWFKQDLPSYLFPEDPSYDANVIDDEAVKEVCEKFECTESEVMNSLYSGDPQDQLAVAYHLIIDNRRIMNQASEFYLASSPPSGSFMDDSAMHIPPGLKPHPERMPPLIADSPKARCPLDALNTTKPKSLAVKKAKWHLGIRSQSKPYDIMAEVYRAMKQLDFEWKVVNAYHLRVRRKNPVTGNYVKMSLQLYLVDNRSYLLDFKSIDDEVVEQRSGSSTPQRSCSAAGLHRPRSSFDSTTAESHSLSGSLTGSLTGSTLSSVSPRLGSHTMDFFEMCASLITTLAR
Chain of Tyrosine-protein kinase CSK (P41240 2-450 limits assumed): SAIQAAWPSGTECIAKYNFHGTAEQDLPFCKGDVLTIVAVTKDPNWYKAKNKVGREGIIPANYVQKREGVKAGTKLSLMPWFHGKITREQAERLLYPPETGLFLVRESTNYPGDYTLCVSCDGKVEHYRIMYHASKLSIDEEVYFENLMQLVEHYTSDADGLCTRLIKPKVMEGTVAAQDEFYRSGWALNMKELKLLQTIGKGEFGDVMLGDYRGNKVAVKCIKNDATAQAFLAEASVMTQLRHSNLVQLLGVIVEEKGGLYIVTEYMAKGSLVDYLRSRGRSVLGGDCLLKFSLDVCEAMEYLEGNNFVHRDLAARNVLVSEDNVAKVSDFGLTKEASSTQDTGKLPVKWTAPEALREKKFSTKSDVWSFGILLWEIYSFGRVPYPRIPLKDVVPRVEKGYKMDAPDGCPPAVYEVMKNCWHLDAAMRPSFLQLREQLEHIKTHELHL
Chain of Focal adhesion kinase 1 (Homo sapiens) (Q05397 2-1052 limits assumed): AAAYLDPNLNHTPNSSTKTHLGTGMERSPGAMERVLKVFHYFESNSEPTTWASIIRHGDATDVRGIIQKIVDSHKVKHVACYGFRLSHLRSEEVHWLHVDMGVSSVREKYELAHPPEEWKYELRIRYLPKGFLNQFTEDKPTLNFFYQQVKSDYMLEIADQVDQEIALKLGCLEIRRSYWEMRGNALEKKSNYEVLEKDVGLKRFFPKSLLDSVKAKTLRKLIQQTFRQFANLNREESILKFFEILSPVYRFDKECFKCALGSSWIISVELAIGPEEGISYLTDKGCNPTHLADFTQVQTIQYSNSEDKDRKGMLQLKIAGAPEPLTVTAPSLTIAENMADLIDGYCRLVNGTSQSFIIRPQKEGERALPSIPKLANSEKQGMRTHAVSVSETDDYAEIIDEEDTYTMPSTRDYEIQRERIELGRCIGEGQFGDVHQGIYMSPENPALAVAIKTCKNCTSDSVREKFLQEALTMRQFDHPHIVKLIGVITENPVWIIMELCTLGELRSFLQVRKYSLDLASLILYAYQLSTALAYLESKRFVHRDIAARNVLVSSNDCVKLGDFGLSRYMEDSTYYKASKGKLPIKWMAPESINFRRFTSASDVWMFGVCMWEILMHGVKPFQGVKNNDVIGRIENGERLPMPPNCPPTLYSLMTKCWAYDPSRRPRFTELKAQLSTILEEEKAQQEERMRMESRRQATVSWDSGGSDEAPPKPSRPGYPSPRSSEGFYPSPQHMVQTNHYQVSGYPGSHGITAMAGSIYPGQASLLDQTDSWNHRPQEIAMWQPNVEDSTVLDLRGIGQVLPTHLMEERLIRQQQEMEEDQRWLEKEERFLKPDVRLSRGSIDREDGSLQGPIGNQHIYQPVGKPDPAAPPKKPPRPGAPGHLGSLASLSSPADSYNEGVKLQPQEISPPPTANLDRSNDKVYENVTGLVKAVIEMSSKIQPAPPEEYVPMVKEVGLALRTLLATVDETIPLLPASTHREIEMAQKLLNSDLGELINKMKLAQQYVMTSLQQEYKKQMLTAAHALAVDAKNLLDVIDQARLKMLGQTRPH
Chain of Calcium/calmodulin-dependent protein kinase type II subunit delta (Homo sapiens) (Q13557 whole entry): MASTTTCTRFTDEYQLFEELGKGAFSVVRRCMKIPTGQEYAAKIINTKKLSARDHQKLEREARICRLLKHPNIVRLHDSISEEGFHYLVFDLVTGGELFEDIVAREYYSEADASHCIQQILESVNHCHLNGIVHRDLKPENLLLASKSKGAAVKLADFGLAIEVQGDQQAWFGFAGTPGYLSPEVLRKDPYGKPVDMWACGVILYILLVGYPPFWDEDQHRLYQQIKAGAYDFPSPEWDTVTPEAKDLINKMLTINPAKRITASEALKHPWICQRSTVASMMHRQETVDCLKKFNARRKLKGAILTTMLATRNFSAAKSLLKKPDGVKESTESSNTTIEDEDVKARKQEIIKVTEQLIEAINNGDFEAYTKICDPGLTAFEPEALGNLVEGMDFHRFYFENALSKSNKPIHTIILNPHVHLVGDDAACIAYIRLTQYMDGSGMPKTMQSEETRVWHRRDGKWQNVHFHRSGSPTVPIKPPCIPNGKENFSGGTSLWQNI
Chain of Phosphatidylinositol 4,5-bisphosphate 3-kinase catalytic subunit beta isoform (Homo sapiens) (P42338 whole entry, looked up, canonical isoform): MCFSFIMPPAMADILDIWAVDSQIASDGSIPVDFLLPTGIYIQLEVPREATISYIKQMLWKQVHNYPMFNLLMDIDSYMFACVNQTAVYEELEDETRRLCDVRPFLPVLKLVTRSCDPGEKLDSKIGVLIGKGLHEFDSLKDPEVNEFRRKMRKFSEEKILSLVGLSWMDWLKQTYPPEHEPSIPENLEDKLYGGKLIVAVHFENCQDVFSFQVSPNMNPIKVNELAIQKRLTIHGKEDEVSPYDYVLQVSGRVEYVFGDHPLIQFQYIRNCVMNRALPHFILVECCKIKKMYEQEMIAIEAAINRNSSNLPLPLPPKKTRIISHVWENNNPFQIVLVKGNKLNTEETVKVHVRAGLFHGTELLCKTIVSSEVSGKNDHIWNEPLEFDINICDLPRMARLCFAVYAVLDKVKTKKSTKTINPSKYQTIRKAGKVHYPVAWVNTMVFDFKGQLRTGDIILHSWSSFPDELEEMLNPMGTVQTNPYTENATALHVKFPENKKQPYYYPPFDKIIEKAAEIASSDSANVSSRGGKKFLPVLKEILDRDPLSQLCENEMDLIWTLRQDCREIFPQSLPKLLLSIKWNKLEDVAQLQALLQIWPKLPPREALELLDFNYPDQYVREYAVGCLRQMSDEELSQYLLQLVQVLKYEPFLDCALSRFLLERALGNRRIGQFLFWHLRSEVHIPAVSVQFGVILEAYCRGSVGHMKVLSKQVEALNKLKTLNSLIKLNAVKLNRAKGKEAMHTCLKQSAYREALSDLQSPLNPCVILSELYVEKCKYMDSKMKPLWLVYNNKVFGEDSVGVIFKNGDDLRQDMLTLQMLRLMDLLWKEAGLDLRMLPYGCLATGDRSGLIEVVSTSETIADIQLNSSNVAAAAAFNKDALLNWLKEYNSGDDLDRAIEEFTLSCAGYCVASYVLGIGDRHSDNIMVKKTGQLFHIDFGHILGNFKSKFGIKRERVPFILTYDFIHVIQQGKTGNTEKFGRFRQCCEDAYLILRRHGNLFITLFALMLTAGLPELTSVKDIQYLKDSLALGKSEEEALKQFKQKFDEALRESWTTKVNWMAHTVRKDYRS
Chain of Membrane-associated tyrosine- and threonine-specific cdc2-inhibitory kinase (Homo sapiens) (Q99640 whole entry): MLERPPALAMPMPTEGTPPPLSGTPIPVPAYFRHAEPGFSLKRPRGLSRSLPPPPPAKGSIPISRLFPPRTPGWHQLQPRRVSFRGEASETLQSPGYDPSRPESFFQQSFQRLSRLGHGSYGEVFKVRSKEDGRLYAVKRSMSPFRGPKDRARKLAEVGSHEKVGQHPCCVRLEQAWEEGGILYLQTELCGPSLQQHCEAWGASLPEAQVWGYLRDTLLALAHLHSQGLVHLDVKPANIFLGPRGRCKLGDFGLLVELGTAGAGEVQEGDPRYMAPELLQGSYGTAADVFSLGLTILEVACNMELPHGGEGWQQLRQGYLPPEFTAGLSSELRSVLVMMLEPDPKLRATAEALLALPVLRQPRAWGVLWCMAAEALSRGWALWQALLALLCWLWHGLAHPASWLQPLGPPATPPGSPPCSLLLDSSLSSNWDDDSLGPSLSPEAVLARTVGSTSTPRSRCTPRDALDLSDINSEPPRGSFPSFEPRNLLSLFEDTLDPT
Chain of Calcium/calmodulin-dependent protein kinase type 1 (Homo sapiens) (Q14012 whole entry, looked up): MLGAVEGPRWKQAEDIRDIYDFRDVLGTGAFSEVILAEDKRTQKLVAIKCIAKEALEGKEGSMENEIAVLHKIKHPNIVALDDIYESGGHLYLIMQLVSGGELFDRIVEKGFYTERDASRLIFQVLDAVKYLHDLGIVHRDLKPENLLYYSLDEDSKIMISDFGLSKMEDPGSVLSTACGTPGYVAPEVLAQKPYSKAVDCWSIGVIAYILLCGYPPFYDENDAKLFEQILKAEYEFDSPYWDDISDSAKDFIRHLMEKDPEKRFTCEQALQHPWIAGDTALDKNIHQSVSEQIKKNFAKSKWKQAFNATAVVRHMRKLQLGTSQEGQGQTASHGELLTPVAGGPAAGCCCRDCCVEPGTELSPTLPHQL

`CCN1CCN(Cc2ccc(NC(=O)c3ccc(C)c(/C=C/c4cnc5[nH]ccc5c4OC)c3)cc2C(F)(F)F)CC1` gave a residual activity [1] of 100%, an inhibition [2] of 68% and a % of control [3] of 100%. It also gave a residual activity [4] of 100% and an inhibition at 0.5 µM [5] of 53.7%.
In the case of `CCN1CCN(Cc2ccc(NC(=O)c3ccc(C)c(Oc4ccnc5[nH]ccc45)c3)cc2C(F)(F)F)CC1`, the inhibition [6] is reported as 49.8%, the inhibition [7] is reported as “inactive” and the inhibition [8] is reported as “inactive”. The inhibition [9] was 48.2%.
Compound `CNc1cc(Oc2cc(C(=O)Nc3cc(N4CCN(C)CC4)cc(C(F)(F)F)c3)ccc2C)ncn1` has an inhibition [10] of 3.3%, an inhibition [11] of -3.3% and an inhibition [12] of 0.6%. The inhibition [13] was -7.5%, the inhibition [14] was 9.1% and the inhibition [15] was 71.1%. For the same compound, the inhibition [16] was 2.7%.
